Data on three compounds can be found in patent US12466812B2, “Pyridinyltriazine derivative having protein kinase inhibitory activity, and pharmaceutical composition for preventing, ameliorating, or treating cancer comprising same” (KOREA INSTITUTE OF SCIENCE AND TECHNOLOGY, priority 2019, dated 2025).

Data set [1] deals with RT112 bladder cancer cell line. The conditions noted are these: J. Med. Chem. 2011, 54:7066-7083; cited from earlier work.
Data set [2] addresses FGFR3 (Homo sapiens, UniProt P22607). As to conditions: J. Med. Chem. 2011, 54:7066-7083; cited from earlier work.
Data set [3] in a line: Microsomal stability. Format: in vitro ADME. The conditions noted are these: dog liver microsomes, based on sample taken at 0 minutes.
The subject of data set [4] is AN3-CA, a uterine cancer cell line. The data set can be described thus: Inhibitory activity against cancer cell proliferation (Experimental Example 2). The conditions noted are these: Homo sapiens, Table 2. Format: cell-based.
The test system of data set [5] is KMS-11 (myeloma cell line). The data set can be described thus: Pan-FGFR mutant cellular activity. Format: cell-based. The conditions noted are these: Homo sapiens, Table 4. The method, then:
(§1) The inhibitory activity against pan-FGFR mutants of the compounds synthesized in Examples 1, 8, 13, 22, and 24 was measured, the inhibitory activity on each of enzymatic activity and cellular activity was evaluated, and the results are shown in Tables 3 and 4 below.

Data set [6] relates to AN3-CA. The data set can be described thus: Pan-FGFR mutant cellular activity. The format is cell-based. The conditions noted are these: Homo sapiens, mutant cell, Table 4, read-out: GI50, AN3-CA (breast cancer cell line). The method, then: as §1
For data set [7], the system named is UMUC3 (bladder cancer cell line). The data set can be described thus: Pan-FGFR mutant cellular activity. Format: cell-based. The conditions noted are these: Homo sapiens, Table 4. As to the method: as §1
The test system of data set [8] is J82 (bladder cancer cell line). The data set can be described thus: Pan-FGFR mutant cellular activity. The format is cell-based. As to conditions: Table 4. As to the method:
as §1

Data set [9] deals with T1, CYP1A2 (Homo sapiens, UniProt P05177).
T1 sequence (P05177 1-516): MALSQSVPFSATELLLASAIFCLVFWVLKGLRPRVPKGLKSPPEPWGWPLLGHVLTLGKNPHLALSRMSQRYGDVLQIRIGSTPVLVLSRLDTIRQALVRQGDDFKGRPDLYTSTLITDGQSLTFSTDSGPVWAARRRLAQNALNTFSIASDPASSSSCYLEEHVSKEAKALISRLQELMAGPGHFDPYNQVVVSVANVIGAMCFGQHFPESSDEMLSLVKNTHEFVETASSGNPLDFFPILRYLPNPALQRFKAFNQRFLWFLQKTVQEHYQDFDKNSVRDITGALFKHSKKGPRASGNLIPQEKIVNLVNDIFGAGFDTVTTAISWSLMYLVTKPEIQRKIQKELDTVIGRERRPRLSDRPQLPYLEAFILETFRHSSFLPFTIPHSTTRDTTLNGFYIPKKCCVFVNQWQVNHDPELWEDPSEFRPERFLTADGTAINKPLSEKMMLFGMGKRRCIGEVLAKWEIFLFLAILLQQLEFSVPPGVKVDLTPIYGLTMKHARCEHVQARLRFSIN
The data set can be described thus: Inhibitory activity against CYP metabolic enzyme. The format is in vitro ADME. As to the method: (§2) In order to determine whether or not there is a possibility that the compounds synthesized in Examples 1, 22, and 24 of the present invention can cause side effects of drug interaction, the rate (%) of inhibition against 5 major metabolic enzymes (CYP1A2, CYP2C9, CYP2C19, CYP2D6, and CYP3A4) among CYPs (cytochrome P450), which are enzymes involved in oxidative metabolism of drugs, was measured. […] That is, it can be seen that the compound of the present invention has a low possibility of causing side effects of drug interaction.

Data set [10] concerns the target CYP2C19 (Homo sapiens, UniProt P33261). The data set can be described thus: Inhibitory activity against CYP metabolic enzyme. Format: in vitro ADME. The method, then:
as §2

Data set [11] addresses CYP2C9 (Homo sapiens, UniProt P11712). The data set can be described thus: Inhibitory activity against CYP metabolic enzyme. Format: in vitro ADME. The method, then: as §2
The target in data set [12] is CYP2D6 (Homo sapiens, UniProt P10635). The data set can be described thus: Inhibitory activity against CYP metabolic enzyme. The format is in vitro ADME. The method, then: as §2
Data set [13] has as its target CYP3A4 (Homo sapiens, UniProt P08684). The data set can be described thus: Inhibitory activity against CYP metabolic enzyme. Format: in vitro ADME. As to the method: as §2
For data set [14], the target named is FGFR2 mutant (N549H) (Homo sapiens, UniProt P21802, N549H). The data set can be described thus: Pan-FGFR mutant enzymatic activity. Format: biochemical. As to conditions: mutant enzyme. As to the method:
as §1

The target in data set [15] is FGFR3 mutant (K650E) (Homo sapiens, UniProt P22607, K650E). The data set can be described thus: Pan-FGFR mutant enzymatic activity. Format: biochemical. As to conditions: mutant enzyme. As to the method: as §1
The target of data set [16] is FGFR3 mutant (V555M) (Homo sapiens, UniProt P22607, V555M). The data set can be described thus: Pan-FGFR mutant enzymatic activity. As to conditions: mutant enzyme. Format: biochemical. The method, then:
as §1

Data set [17] addresses FGFR3 mutant (K650M) (Homo sapiens, UniProt P22607, K650M). The data set can be described thus: Pan-FGFR mutant enzymatic activity. The conditions noted are these: mutant enzyme. Format: biochemical. As to the method:
as §1

The target of data set [18] is FGFR2 mutant (V564F) (Homo sapiens, UniProt P21802, V564F). The data set can be described thus: Pan-FGFR mutant enzymatic activity. Format: biochemical. As to conditions: mutant enzyme. The method, then:
as §1

Data set [19] is described as follows: Microsomal stability. Format: in vitro ADME. The conditions noted are these: rat liver microsomes, based on sample taken at 0 minutes.
A short description of data set [20]: Microsomal stability. The format is in vitro ADME. As to conditions: human liver microsomes, based on sample taken at 0 minutes.
A short description of data set [21]: Microsomal stability. Format: in vitro ADME. The conditions noted are these: mouse liver microsomes, based on sample taken at 0 minutes.
Data set [22] in a line: In-vivo PK profile (mouse PK/ICR mice). As to conditions: plasma, ICR mice, PO 10 mg/kg.

Bounds are passed on as bounds.

Sequence of FGFR3 mutant (K650M) (P22607 23-806 K650M): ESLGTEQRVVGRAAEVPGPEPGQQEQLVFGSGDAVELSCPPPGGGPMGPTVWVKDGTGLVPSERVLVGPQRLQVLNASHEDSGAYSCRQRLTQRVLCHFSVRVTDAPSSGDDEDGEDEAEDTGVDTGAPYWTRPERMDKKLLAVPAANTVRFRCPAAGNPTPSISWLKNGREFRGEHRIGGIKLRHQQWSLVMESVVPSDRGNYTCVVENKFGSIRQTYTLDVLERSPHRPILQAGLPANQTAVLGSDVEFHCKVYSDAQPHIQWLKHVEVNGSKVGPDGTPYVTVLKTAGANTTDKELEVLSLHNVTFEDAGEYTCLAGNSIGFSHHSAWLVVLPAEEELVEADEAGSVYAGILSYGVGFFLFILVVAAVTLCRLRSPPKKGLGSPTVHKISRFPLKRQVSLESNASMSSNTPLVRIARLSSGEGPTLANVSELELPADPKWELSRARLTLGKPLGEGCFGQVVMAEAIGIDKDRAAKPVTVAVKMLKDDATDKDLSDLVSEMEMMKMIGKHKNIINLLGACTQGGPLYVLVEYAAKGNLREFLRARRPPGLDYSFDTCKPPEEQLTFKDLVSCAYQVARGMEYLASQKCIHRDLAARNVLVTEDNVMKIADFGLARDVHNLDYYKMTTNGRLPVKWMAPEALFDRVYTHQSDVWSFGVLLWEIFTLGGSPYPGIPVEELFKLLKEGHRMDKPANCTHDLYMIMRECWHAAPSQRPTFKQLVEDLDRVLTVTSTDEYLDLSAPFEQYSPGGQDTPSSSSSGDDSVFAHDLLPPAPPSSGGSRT
Sequence of FGFR2 mutant (N549H) (P21802 22-821 N549H): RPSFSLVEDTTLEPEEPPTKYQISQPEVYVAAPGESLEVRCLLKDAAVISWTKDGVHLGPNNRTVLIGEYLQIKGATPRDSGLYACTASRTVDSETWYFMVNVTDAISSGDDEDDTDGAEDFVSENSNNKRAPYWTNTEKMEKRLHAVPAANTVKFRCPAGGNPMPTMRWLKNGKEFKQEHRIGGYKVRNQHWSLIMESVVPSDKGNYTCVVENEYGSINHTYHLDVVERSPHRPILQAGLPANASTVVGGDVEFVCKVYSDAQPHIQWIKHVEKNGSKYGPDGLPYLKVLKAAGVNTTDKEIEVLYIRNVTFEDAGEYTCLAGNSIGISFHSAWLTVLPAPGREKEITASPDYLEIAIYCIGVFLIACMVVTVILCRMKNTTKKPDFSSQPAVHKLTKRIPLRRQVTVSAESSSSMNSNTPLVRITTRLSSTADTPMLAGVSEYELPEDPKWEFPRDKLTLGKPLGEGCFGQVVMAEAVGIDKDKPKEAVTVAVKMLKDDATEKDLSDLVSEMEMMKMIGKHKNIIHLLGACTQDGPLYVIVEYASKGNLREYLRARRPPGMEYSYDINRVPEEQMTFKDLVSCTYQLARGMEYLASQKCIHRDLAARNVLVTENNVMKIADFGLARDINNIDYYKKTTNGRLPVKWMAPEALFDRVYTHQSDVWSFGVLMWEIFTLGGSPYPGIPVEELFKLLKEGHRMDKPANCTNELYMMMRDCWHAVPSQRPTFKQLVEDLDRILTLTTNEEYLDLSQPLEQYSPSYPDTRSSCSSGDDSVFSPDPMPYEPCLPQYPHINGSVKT
Sequence of CYP3A4 (P08684 whole entry): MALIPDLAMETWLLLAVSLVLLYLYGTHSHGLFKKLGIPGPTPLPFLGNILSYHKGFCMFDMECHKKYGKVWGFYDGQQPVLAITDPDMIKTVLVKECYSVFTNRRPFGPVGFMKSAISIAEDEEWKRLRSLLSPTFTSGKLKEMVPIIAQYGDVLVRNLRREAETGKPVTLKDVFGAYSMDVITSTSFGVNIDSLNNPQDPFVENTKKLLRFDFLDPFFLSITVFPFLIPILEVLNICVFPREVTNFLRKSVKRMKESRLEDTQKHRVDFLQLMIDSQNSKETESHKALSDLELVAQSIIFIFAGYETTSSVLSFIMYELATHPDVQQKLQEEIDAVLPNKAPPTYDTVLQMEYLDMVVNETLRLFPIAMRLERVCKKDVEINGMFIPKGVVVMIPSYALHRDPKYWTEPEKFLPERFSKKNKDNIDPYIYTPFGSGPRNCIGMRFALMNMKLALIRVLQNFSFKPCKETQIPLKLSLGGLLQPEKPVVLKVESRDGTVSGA
Sequence of FGFR2 mutant (V564F) (P21802 22-821 V564F): as the sequence (P21802 22-821 N549H) above, with H528N, V543F counted along it
Sequence of CYP2D6 (P10635 whole entry): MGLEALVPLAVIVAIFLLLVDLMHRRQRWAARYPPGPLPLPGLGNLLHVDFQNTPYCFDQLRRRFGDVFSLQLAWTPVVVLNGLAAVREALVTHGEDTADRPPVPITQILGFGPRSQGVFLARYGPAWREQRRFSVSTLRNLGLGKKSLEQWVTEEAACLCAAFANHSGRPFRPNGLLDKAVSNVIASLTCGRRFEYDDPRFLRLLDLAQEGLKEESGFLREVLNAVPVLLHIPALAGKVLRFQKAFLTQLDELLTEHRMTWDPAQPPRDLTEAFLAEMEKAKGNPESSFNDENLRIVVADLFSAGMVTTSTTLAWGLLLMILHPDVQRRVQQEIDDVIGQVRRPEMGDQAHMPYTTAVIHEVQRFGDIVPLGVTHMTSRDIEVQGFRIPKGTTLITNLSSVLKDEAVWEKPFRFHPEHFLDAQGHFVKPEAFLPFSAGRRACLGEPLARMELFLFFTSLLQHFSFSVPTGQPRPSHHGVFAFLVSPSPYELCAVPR
Sequence of FGFR3 mutant (V555M) (P22607 23-806 V555M): as the sequence (P22607 23-806 K650M) above, with V533M, M628K counted along it
Sequence of CYP2C19 (P33261 whole entry): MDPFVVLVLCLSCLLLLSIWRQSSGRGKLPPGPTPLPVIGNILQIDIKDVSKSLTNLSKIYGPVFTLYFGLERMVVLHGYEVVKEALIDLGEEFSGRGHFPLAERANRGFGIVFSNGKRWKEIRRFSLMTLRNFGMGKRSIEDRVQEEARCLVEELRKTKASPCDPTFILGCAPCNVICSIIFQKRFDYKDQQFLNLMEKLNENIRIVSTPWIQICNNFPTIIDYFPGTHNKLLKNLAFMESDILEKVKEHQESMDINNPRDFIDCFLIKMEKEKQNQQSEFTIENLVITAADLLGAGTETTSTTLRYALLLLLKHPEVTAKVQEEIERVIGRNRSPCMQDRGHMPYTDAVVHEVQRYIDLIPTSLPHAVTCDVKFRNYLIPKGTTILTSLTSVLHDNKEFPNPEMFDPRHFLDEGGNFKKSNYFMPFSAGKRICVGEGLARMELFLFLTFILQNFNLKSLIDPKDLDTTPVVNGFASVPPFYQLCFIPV
Sequence of FGFR3 mutant (K650E) (P22607 23-806 K650E): as the sequence (P22607 23-806 K650M) above, with M628E counted along it
Sequence of CYP2C9 (P11712 whole entry): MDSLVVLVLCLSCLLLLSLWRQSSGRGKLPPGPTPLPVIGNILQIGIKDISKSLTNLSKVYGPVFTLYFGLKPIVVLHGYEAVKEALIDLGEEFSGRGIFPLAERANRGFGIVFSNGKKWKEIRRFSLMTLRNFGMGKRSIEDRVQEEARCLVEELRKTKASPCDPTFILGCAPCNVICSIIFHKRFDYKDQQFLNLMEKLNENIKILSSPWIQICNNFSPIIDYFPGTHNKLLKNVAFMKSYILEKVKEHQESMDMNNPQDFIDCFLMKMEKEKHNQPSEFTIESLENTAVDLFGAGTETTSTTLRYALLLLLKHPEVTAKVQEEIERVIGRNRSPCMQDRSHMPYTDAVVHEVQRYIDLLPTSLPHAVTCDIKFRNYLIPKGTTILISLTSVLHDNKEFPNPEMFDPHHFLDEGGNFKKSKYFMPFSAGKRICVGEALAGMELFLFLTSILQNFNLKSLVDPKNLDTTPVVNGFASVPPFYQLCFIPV
Sequence of FGFR3 (P22607 23-806): as the sequence (P22607 23-806 K650M) above, with M628K counted along it

Regarding `CCN1CCN(c2ccc(Nc3cc(N(C)C(=O)Nc4c(Cl)c(OC)cc(OC)c4Cl)ncn3)cc2)CC1` [3-(2,6-dichloro-3,5-dimethoxyphenyl)-1-6-[4-(4-ethyl-piperazin-1-yl)phenylamino]pyrimidine-4-yl-1-methyl urea], in [1], the “anticancer activity against the RT112 bladder cancer cell line” value is recorded as “effective anticancer activity”. Also, in data set [2], the “inhibitory activity against FGFR3” value was “selective inhibitory activity”.
For the compound `COc1cc(OC)c(Cl)c(Nc2ncccc2-c2ncnc(Nc3cnn(C4CCN(C(C)C)CC4)c3)n2)c1Cl` [Example 22], the “remaining (%) after reaction with the microsome, Dog” value in data set [3] and in data set [3] (listed as Compound No. 22) was 8.3% each time. Further, the GI50 in data set [4], in data set [5], in data set [6], in data set [7] and in [8] was less than 1000 nM throughout. Besides, the “rate (%) of inhibition, CYP1A2” value in data set [9] was 75.9%. In data set [10], the “rate (%) of inhibition, CYP2C19” value was 44.6%. Further, the “rate (%) of inhibition, CYP2C9” value in data set [11] was found to be 79.1%. In data set [12], the “rate (%) of inhibition, CYP2D6” value is 81.0%. Moreover, the “rate (%) of inhibition, CYP3A4” value in data set [13] stood at 17.6%. The IC50 in data set [14] is less than 100 nM; in data set [15], less than 100 nM; in [16], less than 100 nM; in data set [17] it was less than 100 nM; in [18] it was 100 to 1000 nM. Besides, the “remaining (%) after reaction with the microsome, Rat” value in data set [19] and in [19] (listed as Compound No. 22) was 7.7% throughout. In addition, the “remaining (%) after reaction with the microsome, Human” value in [20] and in data set [20] (listed as Compound No. 22) was 21.8% each time. Besides, the “remaining (%) after reaction with the microsome, Mouse” value in data set [21] and in [21] (listed as Compound No. 22) was 11.5% throughout.
On to `COc1cc(OC)c(Cl)c(Nc2ncccc2-c2ncnc(Nc3cnn(C4CCNCC4)c3)n2)c1Cl` [Example 24, 4-(2-((2,6-dichloro-3,5-dimethoxyphenyl)amino)pyridin-3-yl)-N-(1-(piperidin-4-yl)-1H-pyrazol-4-yl)-1,3,5-triazin-2-amine], for which the “remaining (%) after reaction with the microsome, Dog” value in data set [3] and in data set [3] (listed as Compound No. 24) was 66.9% each time. Besides, the GI50 is less than 1000 nM in data set [4]; less than 1000 nM in data set [5]; less than 1000 nM in [6]; 1000 to 10000 nM in data set [7]; 1000 to 10000 nM in data set [8]. Further, in data set [22], the highest concentration (Cmax) is 153 ng/mL. This compound also showed an MRT inf in data set [22] of 7.94 h. The Tmax in data set [22] was determined as 25.2 min. In data set [22], this compound showed a half-life of 290 min. The “rate (%) of inhibition, CYP1A2” value in data set [9] was determined as 72.8%. The “rate (%) of inhibition, CYP2C19” value in data set [10] was 51.0%. Further, the “rate (%) of inhibition, CYP2D6” value in data set [12] was greater than 100%. For the same compound, the “rate (%) of inhibition, CYP3A4” value in data set [13] was found to be 44.1%. Moreover, the IC50 is less than 100 nM in data set [14]; less than 100 nM in data set [15]; 100 to 1000 nM in [16]; less than 100 nM in data set [17]; 100 to 1000 nM in [18]. In addition, the “remaining (%) after reaction with the microsome, Rat” value in data set [19] is on record as 65.4%; in data set [19] (listed as Compound No. 24), 65.43%. For the same compound, the “remaining (%) after reaction with the microsome, Human” value in data set [20] and in [20] (listed as Compound No. 24) was 62.6% each time. Moreover, the “remaining (%) after reaction with the microsome, Mouse” value in [21] and in [21] (listed as Compound No. 24) was 62.1% each time.
